# Biological target: T1, CDK12 wt/CycK (Homo sapiens, UniProt Q9NYV4)
# T1 construct: either as full-length or enzymatically active fragments
# Test: Radiometric protein kinase assay (33PanQinase), assay condition 2, thiol containing conditions
# Type: biochemical
# Details: thiol containing conditions (1.2 mM DTT), ATP 0.3 μM
# Experimental: Example 1—Assay condition 2 (thiol containing conditions)
# Objective: The IC50 profile of test compounds was determined using protein kinases. IC50 values were measured by testing 10 concentrations (1×10^−04M, 3×10^−05M, 1×10^−05M, 3×10^−06M, 1×10^−06M, 3×10^−07M, 1×10^−07M, 3×10^−08M, 1×10^−08M, and 3×10^−09M) of each compound in singlicate.
# Test compounds: The compounds were provided as pre-weighed powders in vials. The compounds were dissolved to 1×10^−02M by adding DMSO. 100 μl of each of the resulting stock solutions were transferred into column 2 of four 96 well “master plates”
# Prior to testing, the 1×10^−02M stock solutions in column 2 of the master plates were subjected to a serial, semi-logarithmic dilution using 100% DMSO as a solvent. […] Column 1 and 7 were filled with 100% DMSO as controls. Subsequently, 2×10 μl from each well of the serial diluted copy plates were aliquoted with a 96 channel pipettor into two identical sets of “compound dilution plates”.
# In the process, 90 μl H2O were added to each well of a set of compound dilution plates. To minimize potential precipitation, the H2O was added to each plate only a few minutes before the transfer of the compound solutions into the assay plates. Each plate was shaken thoroughly, resulting in a “compound dilution plate/ 10% DMSO”.
# For the assays, 5 μl solution from each well of the compound dilution plates/10% DMSO were transferred into the assay plates. The final volume of the assay was 50 μl. All compounds were tested at 10 final assay concentrations in the range from 1×10^−04M to 3×10^−09M, in singlicate. The final DMSO concentration in the reaction cocktails was 1% in all cases.
# Recombinant protein kinases: All protein kinases were expressed in Sf9 insect cells or in E.coli as recombinant GST-fusion proteins or His-tagged proteins, either as full-length or enzymatically active fragments. All kinases were produced from human cDNAs and purified by either GSH-affinity chromatography or immobilized metal. Affinity tags were removed from a number of kinases during purification. The purity of the protein kinases was examined by SDS-PAGE/Coomassie staining, the identity was checked by mass spectroscopy.
# Protein kinase assay: A radiometric protein kinase assay (^33PanQinase® Activity Assay) was used for measuring the kinase activity. All kinase assays were performed in 96-well FlashPlates™ from PerkinElmer (Boston, MA, USA) in a 50 μl reaction volume. The reaction cocktail was pipetted in four steps in the following order: • 20 μl of assay buffer (standard buffer) • 5μl of ATP solution (in H2O) • 5μl of test compound (in 10% DMSO) • 20 μl enzyme/substrate mix
# The assay for all protein kinases contained 70 mM HEPES-NaOH pH 7.5, 3 mM MgCl2, 3 mM MnCl2, 3 μM Na-orthovanadate, 1.2 mM DTT, 50 μg/ml PEG20000, ATP (variable concentrations, corresponding to the apparent ATP-K. of the respective kinase), [γ-^33P]-ATP (approx. 9×10^05cpm per well), protein kinase, and substrate.
# The following amounts of enzyme and substrate were used per well:
# The reaction cocktails were incubated at 30° C. for 60 minutes. The reaction was stopped with 50 μl of 2% (v/v) H3PO4, plates were aspirated and washed two times with 200 μl 0.9% (w/v) NaCl. Incorporation of ^33Pi was determined with a microplate scintillation counter (Microbeta, Wallac). All assays were performed with a BeckmanCoulter/SAGIANTM Core System.
# Evaluation of raw data: The median value of the counts in column 1 (n=8) of each assay plate was defined as “low control”. This value reflects unspecific binding of radioactivity to the plate in the absence of a protein kinase but in the presence of the substrate. The median value of the counts in column 7 of each assay plate (n=8) was taken as the “high control”, i.e. full activity in the absence of any inhibitor. The difference between high and low control was taken as 100% activity. […]
# T1 sequence (Q9NYV4 whole entry, the tested form may be a part): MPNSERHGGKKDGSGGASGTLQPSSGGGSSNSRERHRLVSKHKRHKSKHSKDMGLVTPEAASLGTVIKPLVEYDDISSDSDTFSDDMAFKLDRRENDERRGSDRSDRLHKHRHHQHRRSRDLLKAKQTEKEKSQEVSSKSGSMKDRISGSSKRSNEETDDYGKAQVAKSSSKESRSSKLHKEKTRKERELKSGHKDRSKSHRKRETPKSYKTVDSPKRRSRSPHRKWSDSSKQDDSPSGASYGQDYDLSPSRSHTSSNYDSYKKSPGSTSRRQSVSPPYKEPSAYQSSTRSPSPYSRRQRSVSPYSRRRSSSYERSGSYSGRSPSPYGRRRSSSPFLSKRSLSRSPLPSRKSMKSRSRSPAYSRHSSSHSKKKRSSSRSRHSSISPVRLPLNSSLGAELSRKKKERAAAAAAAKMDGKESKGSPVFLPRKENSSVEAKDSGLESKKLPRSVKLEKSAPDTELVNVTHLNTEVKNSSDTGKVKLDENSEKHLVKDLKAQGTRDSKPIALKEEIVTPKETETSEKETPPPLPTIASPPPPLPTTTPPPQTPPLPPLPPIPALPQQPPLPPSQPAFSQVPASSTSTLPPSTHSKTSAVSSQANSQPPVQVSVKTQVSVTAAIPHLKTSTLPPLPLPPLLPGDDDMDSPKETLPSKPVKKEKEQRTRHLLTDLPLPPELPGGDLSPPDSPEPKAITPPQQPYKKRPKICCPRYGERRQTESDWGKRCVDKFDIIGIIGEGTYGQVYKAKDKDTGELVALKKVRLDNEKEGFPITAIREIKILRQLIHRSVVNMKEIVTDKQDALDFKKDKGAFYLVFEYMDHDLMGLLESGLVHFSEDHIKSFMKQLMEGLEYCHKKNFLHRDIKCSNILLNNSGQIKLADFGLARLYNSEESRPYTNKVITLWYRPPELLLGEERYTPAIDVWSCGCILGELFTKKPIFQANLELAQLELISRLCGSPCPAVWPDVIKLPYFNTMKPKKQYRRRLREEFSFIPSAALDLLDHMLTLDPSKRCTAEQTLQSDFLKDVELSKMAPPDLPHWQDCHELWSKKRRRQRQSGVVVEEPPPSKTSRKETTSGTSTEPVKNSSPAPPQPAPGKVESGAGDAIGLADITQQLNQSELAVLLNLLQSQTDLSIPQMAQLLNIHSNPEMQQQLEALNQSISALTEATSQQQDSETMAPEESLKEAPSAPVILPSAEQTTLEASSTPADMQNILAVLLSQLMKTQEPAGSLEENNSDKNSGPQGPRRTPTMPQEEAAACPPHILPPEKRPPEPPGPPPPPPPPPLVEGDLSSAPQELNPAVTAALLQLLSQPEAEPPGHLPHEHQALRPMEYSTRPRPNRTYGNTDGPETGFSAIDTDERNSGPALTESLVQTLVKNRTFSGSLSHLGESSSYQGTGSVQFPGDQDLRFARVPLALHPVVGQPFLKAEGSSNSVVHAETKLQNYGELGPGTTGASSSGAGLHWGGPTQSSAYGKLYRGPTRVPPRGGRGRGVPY
# T1 sequence (O75909 whole entry partner, the tested form may be a part): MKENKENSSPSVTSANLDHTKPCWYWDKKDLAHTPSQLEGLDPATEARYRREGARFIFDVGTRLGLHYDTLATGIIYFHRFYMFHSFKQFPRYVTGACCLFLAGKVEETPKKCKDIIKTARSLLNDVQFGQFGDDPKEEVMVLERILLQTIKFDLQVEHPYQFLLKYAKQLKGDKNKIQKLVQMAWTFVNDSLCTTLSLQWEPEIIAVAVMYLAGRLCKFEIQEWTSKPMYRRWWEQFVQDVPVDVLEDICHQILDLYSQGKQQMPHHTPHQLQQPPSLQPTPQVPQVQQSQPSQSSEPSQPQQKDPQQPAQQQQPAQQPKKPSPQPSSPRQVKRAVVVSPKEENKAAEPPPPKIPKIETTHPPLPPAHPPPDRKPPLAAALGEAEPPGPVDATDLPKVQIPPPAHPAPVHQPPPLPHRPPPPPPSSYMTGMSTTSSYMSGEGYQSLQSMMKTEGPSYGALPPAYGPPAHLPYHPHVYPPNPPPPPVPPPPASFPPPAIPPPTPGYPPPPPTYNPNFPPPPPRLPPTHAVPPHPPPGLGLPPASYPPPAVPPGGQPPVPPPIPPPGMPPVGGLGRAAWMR
row,Structure (SMILES),IC50
1,"C=CC(=O)N(C)c1ccc2c(N3CC[C@@H](Nc4ncc(C#N)cn4)C3)nccc2c1 [Example 36, (R)—N-(1-(3-((5-cyanopyrimidin-2-yl)amino)pyrrolidin-1-yl)isoquinolin-6-yl)-N-methylacrylamide]",≤ 100 nM
2,"C=CC(=O)N(C)c1ccc2c(N3CC[C@@H](Nc4ncc(Br)cn4)C3)nc(C)nc2c1 [Example 40, (R)—N-(4-(3-((5-bromopyrimidin-2-yl)amino)pyrrolidin-1-yl)-2-methylquinazolin-7-yl)-N-methylacrylamide]",≤ 100 nM
3,"C=CC(=O)N(C)c1ccc2c(N3CC[C@@H](Nc4ncc(C#N)cn4)C3)nc(C)nc2c1 [Example 39, (R)—N-(4-(3-((5-cyanopyrimidin-2-yl)amino)pyrrolidin-1-yl)-2-methylquinazolin-7-yl)-N-methylacrylamide]",≤ 100 nM
4,"CC#CC(=O)Nc1ccc2c(N3CC[C@@H](Nc4ncc(Br)cn4)C3)nccc2c1 [Example 33, (R)—N-(1-(3-((5-bromopyrimidin-2-yl)amino)pyrrolidin-1-yl)isoquinolin-6-yl)but-2-ynamide]",≤ 100 nM
5,"C=CC(=O)Nc1ccc2c(N3CC[C@@H](Nc4ncc(C#N)cn4)C3)nc(N3CCOCC3)cc2c1 [Example 37, (R)—N-(1-(3-((5-cyanopyrimidin-2-yl)amino)pyrrolidin-1-yl)-3-morpholinoisoquinolin-6-yl)acrylamide]",≤ 100 nM

# Biological target: T2, CDK12 (Homo sapiens, UniProt Q9NYV4)
# T2 construct: ProQinase (named as the party running the assay)
# Test: Radiometric protein kinase assay (33PanQinase), assay condition 1, thiol-free conditions
# Type: biochemical
# Details: thiol-free conditions (1 mM TCEP), ATP at apparent Km
# Experimental: Example 2 —Assay condition 1 (thiol-free conditions)
# The IC50 profile of compounds was determined using protein kinase in a customized, thiol free assay. IC50 values were measured by testing 10 concentrations (1×10^−05 M to 3×10^−10 M) of each test compound in singlicate against each kinase of interest. Prior to testing, the 1×10^−03M stock solutions in column 2 of the master plates were subjected to a serial, semi-logarithmic dilution using 100% DMSO as a solvent. […] Column 1 and 7 were filled with 100% DMSO as controls. Subsequently, 2×10 microliter from each well of the serial diluted copy plates were aliquoted with a 96 channel pipettor into two identical sets of “compound dilution plates”. All plates were barcoded for automated identification and tracking purposes. IC50 values were measured by testing 10 concentrations (1×10^−05 M to 3×10^−10 M) of each compound in singlicate. All compounds were stored as powder until being solubilized in DMSO. Solubilized compounds were stored as 1×10^−02 M/100% DMSO stock solutions. Prior to the assay process, 90 microliters of H2O were added to each well of a set of compound dilution plates. To minimize potential precipitation, the H2O was added to each plate only a few minutes before the transfer of the compound solutions into the assay plates. Each plate was shaken thoroughly, resulting in compound dilution plates with a final of 10% DMSO. For each assay, 5 microliters of solution from each well of the compound dilution plates/10% DMSO were transferred into the assay plate. The final volume of the assay was 50 μl. All compounds were tested at 10 final assay concentrations in the range from 1×10^−05 M to 3×10^−10 M, in singlicate. The final DMSO concentration in the reaction cocktails was 1% in all cases. A radiometric protein kinase assay (33PanQinase® Activity Assay) was used for measuring the kinase activity of the protein kinase. All kinase assays were performed in 96-well FlashPlates™ from PerkinElmer (Boston, Mass., USA) in a 50 microliter reaction volume. The reaction cocktail was pipetted in four steps in the following order: 20 microliter of assay buffer (standard buffer) 5 microliter of ATP solution (in H2O) 5 microliter of test compound (in 10% DMSO) 20 microliter enzyme/subtrate mix. Each assay for the protein kinase contained 70 mM HEPES-NaOH pH 7.5, 3 mM MgCl2, 3 mM MnCl2, 3 microM Na-orthovanadate, 1 mM TCEP, 50 μg/ml PEG20000, ATP (corresponding to the apparent ATP-Km of the kinase, see Table A), [gamma-33P]-ATP (approx. 6×10×E5 cpm per well), with the protein kinase and relevant substrate being used in pre-determined amounts, depending on the kinase in question. For all experiments labeled as “Thiol-free”, all glutathione was exchanged from protein preparations so as to be removed from the assay and final buffer conditions contained no thiol- containing reagents. This was done so there would be no interference with the key cysteines in the proteins of interest.
# For data analysis, the median value of the counts in column 1 (n=8) of each assay plate was defined as “low control”. This value reflects unspecific binding of radioactivity to the plate in the absence of a protein kinase but in the presence of the substrate. The median value of the counts in column 7 of each assay plate (n=8) was taken as the “high control”, i.e. full activity in the absence of any inhibitor. The difference between high and low control was taken as 100% activity. As part of the data evaluation the low control value from a particular plate was subtracted from the high control value as well as from all 80 “compound values” of the corresponding plate. The residual activity (in %) for each well of a particular plate was calculated by using the following formula:
# Res. Activity (%)=100×[(cpm of compound−low control)/(high control−low control)] […]
# T2 sequence (Q9NYV4 whole entry): as the sequence (Q9NYV4 whole entry, the tested form may be a part) above
# T2 sequence (O75909 whole entry partner): as the sequence (O75909 whole entry partner, the tested form may be a part) above
row,Structure (SMILES),IC50
1,"C=CC(=O)Nc1ccc2c(N3CC[C@@H](Nc4ncc(C#N)cn4)C3)ncnc2c1 [Example 12, (R)-N-(4-(3-((5-cyanopyrimidin-2-yl)amino)pyrrolidin-1-yl)quinazolin-7-yl)acrylamide]",≤ 100 nM
2,"C=CC(=O)Nc1ccc2c(N3CC[C@@H](Nc4ncc(C#N)cn4)C3)nc(N3CCCC3)nc2c1 [Example 29, (R)—N-(4-(3-((5-cyanopyrimidin-2-yl)amino)pyrrolidin-1-yl)-2-(pyrrolidin-1-yl)quinazolin-7-yl)acrylamide]",100 to 1000 nM
3,"C=CC(=O)Nc1ccc2c(N3CC[C@@H](Nc4ncc(C#N)cn4)C3)nccc2c1 [Example 26, (R)-N-(1-(3-((5-cyanopyrimidin-2-yl)amino)pyrrolidin-1-yl)isoquinolin-6-yl)acrylamide]",≤ 100 nM
4,"C=CC(=O)Nc1ccc2c(N3CC[C@@H](Nc4ncc(Cl)c(Oc5ccccc5)n4)C3)ncnc2c1 [Example 7, (R)-N-(4-(3-((5-chloro-4-phenoxypyrimidin-2-yl)amino)pyrrolidin-1-yl)quinazolin-7-yl)acrylamide]",100 to 1000 nM
5,"C=CC(=O)Nc1ccc2c(N3CC[C@@H](Nc4ncc(Cl)c(NC)n4)C3)ncnc2c1 [Example 14, (R)-N-(4-(3-((5-chloro-4-(methylamino)pyrimidin-2-yl)amino)pyrrolidin-1-yl)quinazolin-7-yl)acrylamide]",≤ 100 nM
6,"C=CC(=O)Nc1ccc2c(N3CC[C@@H](Nc4ncc(C(F)(F)F)cn4)C3)ncnc2c1 [Example 2, (R)-N-(4-(3-((5-(trifluoromethyl)pyrimidin-2-yl)amino)pyrrolidin-1-yl)quinazolin-7-yl)acrylamide]",≤ 100 nM
7,"C=CC(=O)Nc1ccc2c(N3CC[C@@H](Nc4ncc(C#N)cn4)C3)nc(C)nc2c1 [Example 30, (R)—N-(4-(3-((5-cyanopyrimidin-2-yl)amino)pyrrolidin-1-yl)-2-methylquinazolin-7-yl)acrylamide]",≤ 100 nM
8,"C=CC(=O)Nc1ccc2c(N3CC[C@@H](Nc4ncc(Br)cn4)C3)ncnc2c1 [Example 25, (R)-N-(4-(3-((5-bromopyrimidin-2-yl)amino)pyrrolidin-1-yl)quinazolin-7-yl)acrylamide]",≤ 100 nM
9,C#Cc1cnc(N[C@@H]2CCN(c3nnc(N4CCC4)c4cc(NC(=O)C=C)ccc34)C2)nn1 [Example 53],≤ 100 nM
10,"C=CC(=O)Nc1ccc2c(N3CC[C@@H](Nc4ncc(Cl)c(OCC)n4)C3)nccc2c1 [Example 19, (R)-N-(1-(3-((5-chloro-4-ethoxypyrimidin-2-yl)amino)pyrrolidin-1-yl)isoquinolin-6-yl)acrylamide]",≤ 100 nM
11,"C=CC(=O)Nc1ccc2c(N3CC[C@@H](Nc4ncc(Br)cn4)C3)nc(N3CCOCC3)nc2c1 [Example 20, (R)-N-(4-(3-((5-bromopyrimidin-2-yl)amino)pyrrolidin-1-yl)-2-morpholinoquinazolin-7-yl)acrylamide]",≤ 100 nM
12,"C=CC(=O)Nc1ccc2c(N3CC[C@@H](Nc4ncc(C(F)(F)F)c(NC)n4)C3)ncnc2c1 [Example 15, (R)-N-(4-(3-((4-(methylamino)-5-(trifluoromethyl)pyrimidin-2-yl)amino)pyrrolidin-1-yl)quinazolin-7-yl)acrylamide]",≤ 100 nM
13,"C/C=C/C(=O)Nc1ccc2c(N3CC[C@@H](Nc4ncc(Br)cn4)C3)nccc2c1 [Example 28, (R,E)-N-(1-(3-((5-bromopyrimidin-2-yl)amino)pyrrolidin-1-yl)isoquinolin-6-yl)but-2-enamide]",≤ 100 nM

# Reference: US20220388990A1, “INHIBITORS OF CYCLIN-DEPENDENT KINASES” (Kinnate Biopharma Inc., priority 2019, published 2022)
